Earlier results in patent publication US10736931B2, “Pharmaceutical compositions comprising plant extracts and methods for reducing duration of a common cold using same” (Matrixx Initiatives, Inc., priority 2014, dated 2020).

Biological target: acetylcholine esterase (Homo sapiens, UniProt P22303)
Conditions: ceramides from L. operculata; Feitosa et al. 2011

acetylcholine esterase, sequence (P22303 32-614): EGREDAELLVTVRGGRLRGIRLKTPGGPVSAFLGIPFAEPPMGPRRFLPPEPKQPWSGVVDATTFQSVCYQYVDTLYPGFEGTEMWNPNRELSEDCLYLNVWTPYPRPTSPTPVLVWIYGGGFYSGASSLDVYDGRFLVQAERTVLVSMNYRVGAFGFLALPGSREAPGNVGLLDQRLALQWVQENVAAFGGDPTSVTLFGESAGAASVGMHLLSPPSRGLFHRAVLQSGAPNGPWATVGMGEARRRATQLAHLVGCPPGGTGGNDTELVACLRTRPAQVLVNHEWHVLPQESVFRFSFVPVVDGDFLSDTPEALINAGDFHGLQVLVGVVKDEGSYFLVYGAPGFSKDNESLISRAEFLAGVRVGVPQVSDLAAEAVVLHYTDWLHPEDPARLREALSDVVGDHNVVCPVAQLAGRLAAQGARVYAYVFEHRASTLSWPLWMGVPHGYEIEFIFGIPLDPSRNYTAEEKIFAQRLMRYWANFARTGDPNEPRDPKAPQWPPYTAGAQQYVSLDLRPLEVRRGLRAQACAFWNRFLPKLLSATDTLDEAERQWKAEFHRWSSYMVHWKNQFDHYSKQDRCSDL

## ceramides
  acetylcholine esterase inhibitory effects: high
